pIC50: −log10 of the molar value. Where a name gives a salt, the structure may show the parent alone. Read-outs that look alike come from different tables or passages of the source.
Experiments:
[1] = target: Tyk2 (Homo sapiens (Human), UniProt P29597); assay: pSTAT4 Cell Assay (MSD, NK92 cells); format: cell-based
[2] = target: JH2 domain of human Tyk2 (Homo sapiens (Human), UniProt P29597); assay: JH2 Biochemical Assay (TR-FRET probe displacement); format: binding
[3] = JH2 domain of human Tyk2, TR-FRET probe displacement
[4] = TR-FRET probe displacement, JH2 domain of human Tyk2
[5] = TR-FRET probe displacement, JH2 domain

Sequence of Tyk2 (P29597 whole entry, the tested form may be a part): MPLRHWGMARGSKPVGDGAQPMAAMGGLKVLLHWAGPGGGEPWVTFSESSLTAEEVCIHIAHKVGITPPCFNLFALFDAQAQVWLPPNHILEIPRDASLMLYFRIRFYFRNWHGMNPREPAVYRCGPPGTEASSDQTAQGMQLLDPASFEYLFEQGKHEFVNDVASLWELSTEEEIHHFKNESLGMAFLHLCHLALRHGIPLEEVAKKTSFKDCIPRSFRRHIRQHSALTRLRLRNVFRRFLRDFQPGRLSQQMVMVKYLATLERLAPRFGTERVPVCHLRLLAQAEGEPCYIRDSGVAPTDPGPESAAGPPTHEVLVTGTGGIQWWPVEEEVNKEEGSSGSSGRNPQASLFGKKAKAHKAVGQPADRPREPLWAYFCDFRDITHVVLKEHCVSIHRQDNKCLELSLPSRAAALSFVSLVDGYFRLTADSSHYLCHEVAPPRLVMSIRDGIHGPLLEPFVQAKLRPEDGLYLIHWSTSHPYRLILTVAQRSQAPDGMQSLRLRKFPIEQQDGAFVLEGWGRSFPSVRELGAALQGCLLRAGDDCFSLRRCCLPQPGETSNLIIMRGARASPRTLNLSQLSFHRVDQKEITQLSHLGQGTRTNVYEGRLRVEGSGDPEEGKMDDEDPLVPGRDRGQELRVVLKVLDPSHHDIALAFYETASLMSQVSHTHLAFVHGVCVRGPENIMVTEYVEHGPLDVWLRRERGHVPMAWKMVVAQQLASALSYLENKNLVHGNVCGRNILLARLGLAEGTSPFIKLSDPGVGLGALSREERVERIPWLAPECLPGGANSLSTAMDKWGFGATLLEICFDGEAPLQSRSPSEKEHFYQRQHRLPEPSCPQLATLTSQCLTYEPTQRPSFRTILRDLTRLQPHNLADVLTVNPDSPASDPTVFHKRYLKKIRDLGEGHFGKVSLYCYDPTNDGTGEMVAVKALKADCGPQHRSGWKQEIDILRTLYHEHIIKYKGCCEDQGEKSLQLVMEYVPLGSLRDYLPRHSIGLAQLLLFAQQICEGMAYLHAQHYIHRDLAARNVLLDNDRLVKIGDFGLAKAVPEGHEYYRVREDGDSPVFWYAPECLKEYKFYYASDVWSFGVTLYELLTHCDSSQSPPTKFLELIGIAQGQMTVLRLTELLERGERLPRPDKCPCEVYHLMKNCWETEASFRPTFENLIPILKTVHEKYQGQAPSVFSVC
Sequence of JH2 domain of human Tyk2 (P29597 575-876): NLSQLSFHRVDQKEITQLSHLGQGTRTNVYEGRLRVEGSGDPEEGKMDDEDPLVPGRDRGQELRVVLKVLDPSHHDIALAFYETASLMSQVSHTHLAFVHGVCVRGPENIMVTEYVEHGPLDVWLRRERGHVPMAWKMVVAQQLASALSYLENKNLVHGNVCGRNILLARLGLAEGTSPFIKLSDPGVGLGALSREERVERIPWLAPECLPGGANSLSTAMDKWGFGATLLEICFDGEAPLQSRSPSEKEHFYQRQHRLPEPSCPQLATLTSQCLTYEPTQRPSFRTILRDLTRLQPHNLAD

| SMILES | pIC50 ([1]; MSD) | pIC50 [2, 3] | pIC50 [2, 4] | pIC50 [1] | pIC50 [2, 5] |
| --- | --- | --- | --- | --- | --- |
| CC(=O)Nc1cc(Nc2cc(C)nc(C(C)(F)F)n2)c(OCCC(C)F)cn1 (stereo not drawn) [Example 444, N-(4-((2-(1,1-difluoroethyl)-6-methylpyrimidin-4-yl)amino)-5-(3-fluorobutoxy)pyridin-2-yl)acetamide] | 7.00 to 8.00 | ≥ 8.00 | – | – | – |
| CCCn1ccc(-c2cnc(NC(C)=O)cc2Nc2cc(C)nc(C(C)(F)F)n2)n1 [Example 615, N-(4-((2-(1,1-difluoroethyl)-6-methylpyrimidin-4-yl)amino)-5-(1-propyl-1H-pyrazol-3-yl)pyridin-2-yl)acetamide] | ≥ 8.00 | ≥ 8.00 | – | – | – |
| CC(=O)Nc1cc(Nc2ccnc(C(C)(F)F)n2)c(OC(C)C)cn1 [Example 8, N-(4-((2-(1,1-difluoroethyl)pyrimidin-4-yl)amino)-5-isopropoxypyridin-2-yl)acetamide] | 6.00 to 7.00 | – | ≥ 8.00 | – | – |
| CC(=O)Nc1cc(Nc2cc(C)nc(C(C)(F)F)n2)c(OCc2cc(C)on2)cn1 [Example 497, N-(4-((2-(1,1-difluoroethyl)-6-methylpyrimidin-4-yl)amino)-5-((5-methylisoxazol-3-yl)methoxy)pyridin-2-yl)acetamide] | 7.00 to 8.00 | ≥ 8.00 | – | – | – |
| COCCNc1cncc(-c2cnc(NC(C)=O)cc2Nc2ccnc(C(C)(F)F)n2)n1 [Example 274, N-(4-((2-(1,1-difluoroethyl)pyrimidin-4-yl)amino)-5-(6-((2-methoxyethyl)amino)pyrazin-2-yl)pyridin-2-yl)acetamide] | 7.00 to 8.00 | – | ≥ 8.00 | – | – |
| COc1cnc(NC(C)=O)cc1Nc1cc(OC2CCC2)nc(C(C)(F)F)n1 [Example 455, N-(4-((6-cyclobutoxy-2-(1,1-difluoroethyl)pyrimidin-4-yl)amino)-5-methoxypyridin-2-yl)acetamide trifluoroacetate] | ≥ 8.00 | ≥ 8.00 | – | – | – |
| CO[C@H]1C[C@@H](Oc2cc(Nc3cc(NC(C)=O)ncc3-c3ccn(C)n3)nc(C(C)(F)F)c2)C1 [Example 211, N-(4-((6-(1,1-difluoroethyl)-4-((1s,3s)-3-methoxycyclobutoxy)pyridin-2-yl)amino)-5-(1-methyl-1H-pyrazol-3-yl)pyridin-2-yl)acetamide] | ≥ 8.00 | – | ≥ 8.00 | – | – |
| CC(=O)Nc1cc(Nc2cc(C)nc(C(C)(F)F)n2)c(-c2cc(CN3CCCC3)ccn2)cn1 [Example 805, N-(4′-((2-(1,1-difluoroethyl)-6-methylpyrimidin-4-yl)amino)-4-(pyrrolidin-1-ylmethyl)-[2,3′-bipyridin]-6′-yl)acetamide] | – | – | – | 7.00 to 8.00 | ≥ 8.00 |
| COC(C)c1ccc(-c2cnc(NC(C)=O)cc2Nc2cc(C)nc(C34COC(C3)C4)n2)nc1 (stereo not drawn) [Example 575, N-(4′-((2-(2-oxabicyclo[2.1.1]hexan-4-yl)-6-methylpyrimidin-4-yl)amino)-5-(1-methoxyethyl)-[2,3′-bipyridin]-6′-yl)acetamide] | ≥ 8.00 | ≥ 8.00 | – | – | – |
| COc1cnc(NC(C)=O)cc1Nc1cc(-c2ccc3nc(C)cn3n2)nc(C(C)(F)F)n1 [Example 399, N-(4-((2-(1,1-difluoroethyl)-6-(2-methylimidazo[1,2-b]pyridazin-6-yl)pyrimidin-4-yl)amino)-5-methoxypyridin-2-yl)acetamide] | 7.00 to 8.00 | ≥ 8.00 | – | – | – |
| CC(=O)Nc1cc(Nc2cc(C)nc(C34CC(CO3)C4)n2)c(-c2ccc(COC(F)F)cn2)cn1 [Example 142, N-(4′-((2-(2-oxabicyclo[2.1.1]hexan-1-yl)-6-methylpyrimidin-4-yl)amino)-5-((difluoromethoxy)methyl)-[2,3′-bipyridin]-6′-yl)acetamide] | 7.00 to 8.00 | – | ≥ 8.00 | – | – |
| CCOc1cnc(NC(C)=O)cc1Nc1cc(-c2cnn(C(=O)OC(C)(C)C)c2)nc(C(C)(F)F)n1 [Example 307, tert-butyl 4-(6-((2-acetamido-5-ethoxypyridin-4-yl)amino)-2-(1,1-difluoroethyl)pyrimidin-4-yl)-1H-pyrazole-1-carboxylate] | 7.00 to 8.00 | – | ≥ 8.00 | – | – |
| CC(=O)Nc1cc(Nc2cc(C)nc(C(C)(F)F)n2)c(-c2cc(CN(C)C)n(C)n2)cn1 [Example 287, N-(4-((2-(1,1-difluoroethyl)-6-methylpyrimidin-4-yl)amino)-5-(5-((dimethylamino)methyl)-1-methyl-1H-pyrazol-3-yl)pyridin-2-yl)acetamide] | ≥ 8.00 | – | ≥ 8.00 | – | – |
| COC(C)(C)c1cc(-c2cnc(NC(C)=O)cc2Nc2cc(C)nc(C(C)(F)F)n2)ncn1 [Example 264, N-(4-((2-(1,1-difluoroethyl)-6-methylpyrimidin-4-yl)amino)-5-(6-(2-methoxypropan-2-yl)pyrimidin-4-yl)pyridin-2-yl)acetamide] | 6.00 to 7.00 | – | 6.00 to 7.00 | – | – |
| COc1cnc(NC(C)=O)cc1Nc1cc(-c2cnn(C(C)C)c2F)nc(C(C)(F)F)n1 [Example 383, N-(4-((2-(1,1-difluoroethyl)-6-(5-fluoro-1-isopropyl-1H-pyrazol-4-yl)pyrimidin-4-yl)amino)-5-methoxypyridin-2-yl)acetamide] | 7.00 to 8.00 | 7.00 to 8.00 | – | – | – |
| CC(=O)Nc1cc(Nc2cc(C)nc(C(C)(C)F)n2)c(-c2ccn3nccc3n2)cn1 [Example 538, N-(4-((2-(2-fluoropropan-2-yl)-6-methylpyrimidin-4-yl)amino)-5-(pyrazolo[1,5-a]pyrimidin-5-yl)pyridin-2-yl)acetamide] | ≥ 8.00 | ≥ 8.00 | – | – | – |
| CC(=O)Nc1cc(Nc2cc(C)nc(C(C)(F)F)n2)c(-c2cc(C)n(C)n2)cn1 [Example 619, N-(4-((2-(1,1-difluoroethyl)-6-methylpyrimidin-4-yl)amino)-5-(1,5-dimethyl-1H-pyrazol-3-yl)pyridin-2-yl)acetamide] | ≥ 8.00 | ≥ 8.00 | – | – | – |
| COc1cnc(NC(C)=O)cc1Nc1cc(-c2cnn(CC(F)(F)F)c2)nc(C(C)(F)F)n1 [Example 381, N-(4-((2-(1,1-difluoroethyl)-6-(1-(2,2,2-trifluoroethyl)-1H-pyrazol-4-yl)pyrimidin-4-yl)amino)-5-methoxypyridin-2-yl)acetamide] | 7.00 to 8.00 | ≥ 8.00 | – | – | – |
| CC(=O)Nc1cc(Nc2cc(C)nc(C(C)(F)F)n2)c(OCC2COCC3(CCC3)O2)cn1 (stereo not drawn) [Example 443, N-(5-((5,8-dioxaspiro[3.5]nonan-6-yl)methoxy)-4-((2-(1,1-difluoroethyl)-6-methylpyrimidin-4-yl)amino)pyridin-2-yl)acetamide] | 7.00 to 8.00 | ≥ 8.00 | – | – | – |
| CC(=O)Nc1cc(Nc2ccnc(C(C)(F)F)n2)c(-c2ncc(CN(C)C)s2)cn1 [Example 782, N-(4-((2-(1,1-difluoroethyl)pyrimidin-4-yl)amino)-5-(5-((dimethylamino)methyl)thiazol-2-yl)pyridin-2-yl)acetamide] | – | – | – | ≥ 8.00 | ≥ 8.00 |
| CC(=O)Nc1cc(Nc2ccnc(C(C)(F)F)n2)c(-c2cc(N(C)C)ncn2)cn1 [Example 256, N-(4-((2-(1,1-difluoroethyl)pyrimidin-4-yl)amino)-5-(6-(dimethylamino)pyrimidin-4-yl)pyridin-2-yl)acetamide] | ≤ 6.00 | – | 7.00 to 8.00 | – | – |
| COc1cnc(NC(C)=O)cc1Nc1cc(-c2cc(C#N)c3nc(C)cn3c2)nc(C(C)(F)F)n1 [Example 402, N-(4-((6-(8-cyano-2-methylimidazo[1,2-a]pyridin-6-yl)-2-(1,1-difluoroethyl)pyrimidin-4-yl)amino)-5-methoxypyridin-2-yl)acetamide] | 6.00 to 7.00 | 7.00 to 8.00 | – | – | – |
| CC(=O)Nc1cc(Nc2cc(C)nc(C(C)(F)F)n2)c(OC2CCN(C)C2)cn1 (stereo not drawn) [Example 478, N-(4-((2-(1,1-difluoroethyl)-6-methylpyrimidin-4-yl)amino)-5-((1-methylpyrrolidin-3-yl)oxy)pyridin-2-yl)acetamide] | 6.00 to 7.00 | ≥ 8.00 | – | – | – |
| CC(=O)Nc1cc(Nc2cc(C)nc(C(C)(F)F)n2)c(OCC2CC3(CCC3)CO2)cn1 (stereo not drawn) [Example 433, N-(5-((6-oxaspiro[3.4]octan-7-yl)methoxy)-4-((2-(1,1-difluoroethyl)-6-methylpyrimidin-4-yl)amino)pyridin-2-yl)acetamide] | ≥ 8.00 | ≥ 8.00 | – | – | – |
| CC(=O)Nc1cc(Nc2cc(C)nc(C(C)(F)F)n2)c(OC[C@@H]2CCC(=O)N2)cn1 [Example 500, (S)-N-(4-((2-(1,1-difluoroethyl)-6-methylpyrimidin-4-yl)amino)-5-((5-oxopyrrolidin-2-yl)methoxy)pyridin-2-yl)acetamide] | 6.00 to 7.00 | ≥ 8.00 | – | – | – |
| CC(=O)Nc1cc(Nc2cc(C)nc(C(C)(F)F)n2)c(OCC(F)C(C)C)cn1 (stereo not drawn) [Example 429, N-(4-((2-(1,1-difluoroethyl)-6-methylpyrimidin-4-yl)amino)-5-(2-fluoro-3-methylbutoxy)pyridin-2-yl)acetamide] | 7.00 to 8.00 | ≥ 8.00 | – | – | – |
| COc1ccc(-c2cnc(NC(C)=O)cc2Nc2cc(C(C)C)nc(C(C)(F)F)n2)nn1 [Example 832, N-(4-((2-(1,1-difluoroethyl)-6-isopropylpyrimidin-4-yl)amino)-5-(6-methoxypyridazin-3-yl)pyridin-2-yl)acetamide] | – | – | – | ≥ 8.00 | ≥ 8.00 |
| CC(=O)Nc1cc(Nc2cc(C)nc(C(C)(F)F)n2)c(OCCC2CCCN2C)cn1 (stereo not drawn) [Example 501, N-(4-((2-(1,1-difluoroethyl)-6-methylpyrimidin-4-yl)amino)-5-(2-(1-methylpyrrolidin-2-yl)ethoxy)pyridin-2-yl)acetamide] | 6.00 to 7.00 | ≥ 8.00 | – | – | – |
| COc1cnc(NC(C)=O)cc1Nc1cc(-c2cn[nH]c2F)nc(C(C)(F)F)n1 [Example 385, N-(4-((2-(1,1-difluoroethyl)-6-(5-fluoro-1H-pyrazol-4-yl)pyrimidin-4-yl)amino)-5-methoxypyridin-2-yl)acetamide] | 6.00 to 7.00 | 7.00 to 8.00 | – | – | – |
| CC(=O)Nc1cc(Nc2cc(OC3CC3)nc(C(C)(F)F)n2)c(F)cn1 [Example 818, N-(4-((6-cyclopropoxy-2-(1,1-difluoroethyl)pyrimidin-4-yl)amino)-5-fluoropyridin-2-yl)acetamide] | – | – | – | 6.00 to 7.00 | ≥ 8.00 |
